Several values for one entry are separate records, joined by “and”; a condition that tells them apart may be missing. Identical values can stand only once.
Tests used:
acute tendon injury = test: Time until positive clinical response (disappearance of swelling, heat and pain on palpation) after medication institution; type: in vivo, horse; details: for Time until Clinical Response: acute tendon injury
Description: An acute tendon injury in a horse, is also known as a “Bowed Tendon”. This injury is clinically characterized by visible swelling of the tendon, heat to touch, as well as pain on palpation of the tendon. Clinical improvement of such a tendon injury is manifest by the diminution and ultimate absence of any swelling, heat and pain on palpation. The trials detailed above were carried out using the “polypaste” (multiple medications) approach to tendon injury in horses using “Tendon Guard Intense”. Three medications were used in initial tendon injury treatment: a proinflammatory cytokine inhibitor (Doxycycline 5 gm BD), an antioxidant or catechin (Green Tea extract/EGCG 5 gm BD) and an anti-inflammatory (Ibuprofen 5 gm BD). Throughout the testing process, a cohort of horses, were unable to take all of the individual ingredients planned, due to a number of reasons: The individual medication contraindications outlined, led to a cohort of horses in initial testing who consequently only received a single drug or a combination of two drugs (not three) to treat their acute tendon injury. These horses received either: All horses were carefully examined daily following acute injury and after institution of medication, by either an experienced veterinarian or trainer, for the presence of all of swelling, heat and pain on palpation of the tendon. A positive clinical response to treatment was defined as the absence of all three of swelling, heat and pain on palpation. The time from medication institution until disappearance of all three signs of swelling, heat and pain on palpation was recorded, as this was deemed the ultimate marker of clinical improvement of the tendon injury. Horses were immediately put back into light exercise once these acute signs had disappeared.

tendon injury = test: Additional studies with alternative combinations: resolution of pain and swelling; type: in vivo, horse; details: dose of 450 mg/day
Description: Additional studies have been performed with alternative anti-inflammatories and alternative NSAIDs. It is desirable to avoid using ibuprofen. The reason is ibuprofen stores in tissue and causes positive drug tests in racing horses. Copper indomethacin (CuIndomethacin) has been used as the anti-inflammatory and/or NSAID.
One of the advantages of CuIndomethacin is that it can be used in lower dosages. A dose of 200 mg (⅕ gram) has been used. It is hypothesized that a therapeutic effect may be achieved with 50 mg or ¼ of the usual dose or less by way of example.
In some embodiments, it is desirable to avoid using Doxycycline. The reason for this is that there is a worldwide push not to use antibiotics for purposes which are not infection related. For this reason, in som embodiments, curcumin, which is also a proinflammatory cytokine inhibitor, has been used at a dose of 450 mg/day with great success.

CC(C)Cc1ccc(C(C)C(=O)O)cc1 (stereo not shown) [Ibuprofen]
Time until Clinical Response (acute tendon injury; individual horses (8), Ibuprofen alone 5 gm BD): 20 days and 25 days and 19 days (2×) and 18 days and 23 days and 27 days and 24 days
Mean time until a positive clinical response to treatment (acute tendon injury; mean of 8 horses, Ibuprofen alone 5 gm BD): (21.9 days)

COc1cc(/C=C/C(=O)CC(=O)/C=C/c2ccc(O)c(OC)c2)ccc1O [curcumin]
Outcome of use as proinflammatory cytokine inhibitor in place of doxycycline (tendon injury): great success

C[C@H]1c2cccc(O)c2C(=O)C2=C(O)[C@]3(O)C(=O)C(C(N)=O)=C(O)[C@@H](N(C)C)[C@@H]3[C@@H](O)[C@@H]21 [Doxycycline]
Time until Clinical Response (acute tendon injury; individual horses (6), Doxycycline alone 5 gms BD): 27 days (2×) and 21 days (2×) and 24 days and 28 days
Mean time until a positive clinical response to treatment (acute tendon injury; mean of 6 horses, Doxycycline alone 5 gms BD): (24.66 days)

O=C(O[C@@H]1Cc2c(O)cc(O)cc2O[C@@H]1c1cc(O)c(O)c(O)c1)c1cc(O)c(O)c(O)c1 [EGCG, epigallocatechin gallate]
Time until Clinical Response (acute tendon injury; individual horses (5), EGCG alone 5 gms BD): 24 days and 21 days (2×) and 28 days and 31 days
Mean time until a positive clinical response to treatment (acute tendon injury; mean of 5 horses, EGCG alone 5 gms BD): (25 days)

Reference: patent publication US11000533B2, “Connective tissue monitoring, compositions for connective tissue treatment and methods for treating connective tissue” (priority 2011, dated 2021)
